This note sets out measurements from ChEMBL document CHEMBL2021867, “Systematic Chemical Mutagenesis Identifies a Potent Novel Apratoxin A/E Hybrid with Improved in Vivo Antitumor Activity” (ACS Med Chem Lett, 2011).

SMILES strings stand for the structures. Activity calls are given as the source filed them. The rule behind the calls is not given here.

Data set [1] addresses Hepatocyte growth factor receptor (Homo sapiens) (UniProt P08581). The experiment in a line: Inhibition of Met expressed human HCT116 cells by immunoblotting assay. Conditions: HCT-116. It is filed as cell-based. Background: In western blotting, separated proteins are transferred to a membrane and probed.
For data set [2], the species on record is Oryctolagus cuniculus. Briefly: Inhibition of cotranslational processing of human PDGFRalpha in rabbit reticulocyte assessed as [35S-methionine] incorporation using canine pancreatic microsomal membranes by SDS-PAGE analysis. The class given is functional, microsomes. Conditions: Microsome.
A further data set concerns HCT-116. Briefly: Antitumor activity against human HCT116 cells xenografted in nu/nu mouse model at 0.25 mg/kg, ip dosed daily for over 2 weeks. The class given is functional, organism-based. On the set-up: dose 0.25 mg/kg.
The test system of data set [3] is Mus musculus. The experiment in a line: Toxicity in human HCT116 cells xenografted nu/nu mouse assessed as body weight loss at > 0.375 mg/kg, ip. The class given is organism-based, HCT-116. On the set-up: dose 0.375 mg/kg, route intraperitoneal. The settings on record: in vivo. On the technique in general: A xenograft is tissue or cells of one species grown in another, often human tumour cells in immunodeficient mice.

Data set [4] deals with Mus musculus. The experiment in a line: Toxicity in human HCT116 cells xenografted nu/nu mouse assessed as mortality at > 0.375 mg/kg, ip. The arrangement: dose 0.375 mg/kg, route intraperitoneal. The class given is organism-based, HCT-116. Conditions: in vivo.
For data set [5], the species on record is Oryctolagus cuniculus. Briefly: Inhibition of cotranslational processing of in rabbit reticulocyte assessed as [35S-methionine] incorporation using canine pancreatic microsomal membranes by SDS-PAGE analysis. Conditions: Microsome. The class given is functional, microsomes.
Data set [6] has as its system Mus musculus. The experiment in a line: Irreversible toxicity in human HCT116 cells xenografted nu/nu mouse at > 0.375 mg/kg, ip measured post compound withdrawal. The class given is organism-based, HCT-116. The arrangement: dose 0.375 mg/kg, route intraperitoneal. The settings on record: in vivo.
For data set [7], the system named is Mus musculus. Briefly: Toxicity in human HCT116 cells xenografted nu/nu mouse assessed as body weight loss at > 0.375 mg/kg, ip measured post compound withdrawal. The class given is organism-based, HCT-116. The arrangement: dose 0.375 mg/kg, route intraperitoneal. The settings on record: in vivo.
For data set [8], the system named is Mus musculus. Briefly: Toxicity in human HCT116 cells xenografted nu/nu mouse assessed as mortality at > 0.375 mg/kg, ip measured post compound withdrawal. The arrangement: dose 0.375 mg/kg, route intraperitoneal. It is filed as organism-based, HCT-116. Conditions: in vivo.
The subject of data set [9] is Mus musculus. The experiment in a line: Toxicity in human HCT116 cells xenografted nu/nu mouse assessed as weight loss at 0.25 mg/kg, ip dosed daily for over 2 weeks. Conditions: in vivo, 336 h. It is filed as organism-based, HCT-116. On the set-up: dose 0.25 mg/kg, route intraperitoneal.
Data set [10] deals with Mus musculus. The experiment in a line: Toxicity in human HCT116 cells xenografted nu/nu mouse assessed as kidney histology changes at 0.25 mg/kg, ip dosed daily for over 2 weeks. The settings on record: in vivo, 336 h. It is filed as organism-based, HCT-116. The arrangement: dose 0.25 mg/kg, route intraperitoneal.
Data set [11] deals with Mus musculus. Briefly: Toxicity in human HCT116 cells xenografted nu/nu mouse assessed as liver histology changes at 0.25 mg/kg, ip dosed daily for over 2 weeks. It is filed as organism-based, HCT-116. On the set-up: dose 0.25 mg/kg, route intraperitoneal. The settings on record: in vivo, 336 h.
Data set [12] relates to Mus musculus. The experiment in a line: Reduction in PDGFRbeta level in tumor of human HCT116 cells xenografted in nu/nu mouse at 0.25 mg/kg, ip dosed daily for over 2 weeks by Western blot. The settings on record: HCT-116. On the set-up: dose 0.25 mg/kg. The class given is functional, organism-based.
Data set [13] deals with Mus musculus. The experiment in a line: Reduction in VEGFR2 level in tumor of human HCT116 cells xenografted in nu/nu mouse at 0.25 mg/kg, ip dosed daily for over 2 weeks by Western blot. The settings on record: HCT-116. The arrangement: dose 0.25 mg/kg. It is filed as functional, organism-based.
The subject of data set [14] is Mus musculus. The experiment in a line: Reduction in VEGFR2 level in liver of human HCT116 cells xenografted in nu/nu mouse at 0.25 mg/kg, ip dosed daily for over 2 weeks by Western blot. It is filed as functional, organism-based. On the set-up: dose 0.25 mg/kg. The settings on record: HCT-116.

Sequence of Hepatocyte growth factor receptor (Homo sapiens) (P08581 whole entry): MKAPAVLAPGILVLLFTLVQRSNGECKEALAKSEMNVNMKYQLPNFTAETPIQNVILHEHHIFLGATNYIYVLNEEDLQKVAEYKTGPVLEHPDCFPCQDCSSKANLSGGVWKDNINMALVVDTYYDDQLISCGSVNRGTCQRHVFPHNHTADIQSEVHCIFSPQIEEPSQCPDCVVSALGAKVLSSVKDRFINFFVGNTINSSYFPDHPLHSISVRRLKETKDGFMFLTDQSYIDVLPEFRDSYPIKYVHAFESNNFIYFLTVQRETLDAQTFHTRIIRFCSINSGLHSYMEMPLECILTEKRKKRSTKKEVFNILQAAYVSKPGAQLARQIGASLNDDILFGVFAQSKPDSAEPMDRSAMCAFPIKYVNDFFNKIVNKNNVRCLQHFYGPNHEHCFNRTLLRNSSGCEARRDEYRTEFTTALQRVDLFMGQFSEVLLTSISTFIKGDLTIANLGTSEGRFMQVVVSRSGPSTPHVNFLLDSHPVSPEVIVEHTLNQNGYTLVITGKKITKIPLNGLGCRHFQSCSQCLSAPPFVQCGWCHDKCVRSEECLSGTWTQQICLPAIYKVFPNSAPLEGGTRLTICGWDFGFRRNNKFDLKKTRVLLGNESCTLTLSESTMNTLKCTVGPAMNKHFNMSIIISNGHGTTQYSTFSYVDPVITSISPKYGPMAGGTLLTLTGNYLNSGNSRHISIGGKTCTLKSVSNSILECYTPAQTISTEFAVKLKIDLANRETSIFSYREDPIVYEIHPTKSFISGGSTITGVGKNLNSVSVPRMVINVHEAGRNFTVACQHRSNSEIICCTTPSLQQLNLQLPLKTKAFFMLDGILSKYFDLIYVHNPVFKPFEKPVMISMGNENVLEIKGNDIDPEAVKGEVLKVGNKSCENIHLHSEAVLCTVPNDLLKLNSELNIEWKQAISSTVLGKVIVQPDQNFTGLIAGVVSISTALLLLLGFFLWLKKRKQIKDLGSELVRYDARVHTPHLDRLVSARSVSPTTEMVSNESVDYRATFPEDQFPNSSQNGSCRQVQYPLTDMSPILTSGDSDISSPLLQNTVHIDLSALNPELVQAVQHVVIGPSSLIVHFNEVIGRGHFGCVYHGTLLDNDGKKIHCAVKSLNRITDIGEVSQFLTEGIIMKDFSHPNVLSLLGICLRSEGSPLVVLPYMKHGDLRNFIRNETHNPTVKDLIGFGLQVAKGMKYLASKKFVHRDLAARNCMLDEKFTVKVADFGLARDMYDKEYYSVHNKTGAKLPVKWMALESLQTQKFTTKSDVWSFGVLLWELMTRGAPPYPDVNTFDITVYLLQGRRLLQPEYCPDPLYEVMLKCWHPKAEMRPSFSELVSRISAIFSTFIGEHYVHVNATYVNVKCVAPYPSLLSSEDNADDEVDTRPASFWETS

As to `CC[C@H](C)[C@H]1C(=O)N(C)[C@@H](C)C(=O)O[C@H](C(C)(C)C)C[C@@H](C)C[C@H](O)[C@H](C)C2=N[C@@H](/C=C(\C)C(=O)N[C@@H](Cc3ccc(OC)cc3)C(=O)N(C)[C@@H](C)C(=O)N1C)CS2`, the inhibition result in data set [1] was “Active”.

As to `CC[C@H](C)[C@H]1C(=O)N2CCC[C@H]2C(=O)O[C@H](C(C)(C)C)C[C@@H](C)C[C@H](O)[C@H](C)C2=N[C@@H](/C=C(\C)C(=O)N[C@@H](C)C(=O)N(C)[C@@H](C)C(=O)N1C)CS2`, the inhibition entry in data set [1] was “inactive”.

With `COc1ccc(C[C@@H]2NC(=O)/C(C)=C/[C@H]3CSC(=N3)[C@@H](C)[C@@H](O)C[C@H](C)C[C@@H](C(C)(C)C)OC(=O)[C@@H]3CCCN3C(=O)[C@H](C)N(C)C(=O)[C@H](C)N(C)C2=O)cc1`, the inhibition entry in data set [1] is “inactive”.

In the case of `CC[C@H](C)[C@H]1C(=O)N2CCC[C@H]2C(=O)O[C@H](C(C)(C)C)C[C@@H](C)C[C@H](O)[C@H](C)C2=N[C@@H](CCC(=O)N[C@@H](Cc3ccc(OC)cc3)C(=O)N(C)[C@@H](C)C(=O)N1C)CS2` [APRATOXIN S4], the inhibition entry in the data set listed under Oryctolagus cuniculus [2] is “Active”. Moreover, the outcome in the data set with HCT-116, in the data set with Mus musculus [12] and with Mus musculus [13] was Active. In addition, the Activity result in the data set with Mus musculus [3], with Mus musculus [4], in the data set with Mus musculus [6], with Mus musculus [7], in the data set on Mus musculus [8] and in the data set on Mus musculus [9] was “Non-toxic” in each case. The Activity result in the data set on Mus musculus [10] and with Mus musculus [11] was “Non-toxic” throughout. Besides, the inhibition entry in the data set listed under Oryctolagus cuniculus [5] is “Dose-dependent effect”. For the same compound, the outcome in the data set with Mus musculus [14] was inactive.
